From publication PMC7377239, “Cardiovascular Effects of Polychlorinated Biphenyls and Their Major Metabolites” (Environmental Health Perspectives, 2020) come the findings set out here.

The data set deals with iCell cardiomyocytes (human iPSC-derived cardiomyocytes). Nature of the data set: High-content imaging of cytotoxicity and mitochondrial integrity in iPSC-CMs. The format is cell-based. Conditions: for minimal effective concentration: Homo sapiens, Cardiomyocyte, cardiomyocytes (cm). Summed up:
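This assay measured cytotoxicity and mitochondrial integrity in iPSC cardiomyocytes held in 40μL maintenance medium. After compound exposure, a 2× staining solution with Hoechst 33342 (4μg/mL) and MitoTracker™ Orange (0.4μM) was applied for 15 min at 37°C. Cells were washed, fixed with 3.7% formaldehyde, imaged on DAPI and Cy3 channels, and scored in MetaXpress®.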

[1] abbreviates: 1.5 h, cam, 90 min, read-out: POD cm.cam.90min.
Where [2] appears, read: 1.5 h, mii, 90 min, read-out: POD cm.mii.90min.
Setting [3] is: 1.5 h, mito, 90 min, read-out: POD cm.mito.90min.
The mark [4] stands for this setting: 1.5 h, tc, 90 min, read-out: POD cm.tc.90min.
Where [5] appears, read: 24 h, cam, 24 hrs, read-out: POD cm.cam.24hrs.
Where [6] appears, read: 24 h, mii, 24 hrs, read-out: POD cm.mii.24hrs.
[7] abbreviates: 24 h, mito, 24 hrs, read-out: POD cm.mito.24hrs.
Where [8] appears, read: 24 h, tc, 24 hrs, read-out: POD cm.tc.24hrs.

Like-named read-outs stand apart in the source and are kept apart here.

Consider `Clc1cccc(-c2cccc(Cl)c2)c1` [PCB 11, 3,3′-Dichlorobiphenyl], for which the minimal effective concentration runs as follows: under setting [1], 18.6 µM; under setting [2], 12.4 µM; under setting [3], 14.2 µM; under setting [4], 16.7 µM; under setting [5], 35.2 µM; under setting [6], 9.6 µM. Further, the minimal effective concentration runs as follows: under setting [7], 33.1 µM; under setting [8], 35.1 µM.
Regarding `Clc1ccc(Cl)c(-c2cc(Cl)ccc2Cl)c1` [PCB 52, 2,2′,5,5′-tetrachlorobiphenyl], the minimal effective concentration under setting [1] amounted to 36 µM; the minimal effective concentration under setting [2] was 10.4 µM; the minimal effective concentration under setting [3] worked out at 39.2 µM; the minimal effective concentration under setting [4] worked out at 38.9 µM; the minimal effective concentration under setting [5] was found to be 7.5 µM; the minimal effective concentration under setting [6] is 34.4 µM. Also, the minimal effective concentration runs as follows: under setting [7], 7.32 µM; under setting [8], 8.11 µM.
As to `Clc1ccc(Cl)c(-c2c(Cl)ccc(Cl)c2Cl)c1` [PCB 95, 2,2′,3,5′,6-pentachlorobiphenyl], the minimal effective concentration reads like this: under setting [1], 36.6 µM; under setting [2], 100 µM; under setting [3], 39.6 µM; under setting [4], 38.7 µM; under setting [5], 8.98 µM; under setting [6], 22.2 µM. Further, the minimal effective concentration is, setting by setting: under setting [7], 8.96 µM; under setting [8], 8.75 µM.
As for `Clc1ccc(-c2cc(Cl)c(Cl)c(Cl)c2)cc1Cl` [PCB 126, 3,3′,4,4′,5-pentachlorobiphenyl], the minimal effective concentration by setting is: under setting [1], 100 µM; under setting [2], 100 µM; under setting [3], 100 µM; under setting [4], 100 µM; under setting [5], 7.03 µM; under setting [6], 100 µM. Also, the minimal effective concentration runs as follows: under setting [7], 7.54 µM; under setting [8], 6.48 µM. The “effect on cell viability in iPSC-CMs” value (iPSC-CMs, 0.01-100 μM, 90 min and 24 h) is listed as “little effect on cell viability”.
`Clc1cc(Cl)c(-c2cc(Cl)c(Cl)cc2Cl)cc1Cl` [PCB 153, 2,2′,4,4′,5,5′-hexachlorobiphenyl]: the minimal effective concentration by setting is: under setting [1], 20.6 µM; under setting [2], 100 µM; under setting [3], 19.8 µM; under setting [4], 23.2 µM; under setting [5], 11.6 µM; under setting [6], 39.9 µM. Also, the minimal effective concentration reads like this: under setting [7], 10.5 µM; under setting [8], 11.1 µM.
